Measured values: patent publication US5397780A, “Pyrroloazepine derivative” (Suntory Limited, priority 1993, dated 1995)

Experiments:
serotonin (5-HT) = assay: Anti-serotonin (anti-5-HT) action: serotonin-induced contraction of guinea pig superior mesenteric artery; parameters: species or system Hartley male guinea pig; conditions: contraction by 10^-5 M serotonin = 100%
Experimental: (§1) With respect to certain compounds of the present invention, their anti-α1 action and anti-serotonin (5-HT) action were investigated by the testing methods which will be described below.
A sample cut in a helical form was suspended under 0.3 g load in a Magnus cylinder filled with the Tyrode solution of 37° C. which had been saturated with a mixed gas consisting of 95% O2 +5% CO2. Using an isometric transducer ("UL-10"/SHINKOH K.K.) and a pressure preamplifier ("DSA-605A"/SHINKOH K.K.), variations in tension were measured. The measurement results were recorded on a pen-writing recorder ("VP-6537A"/NATIONAL K.K.). Taking the contraction induced by 10^-5 M serotonin (5-HT) as 100% the percent contractions in the presence of each test drug at 10^-7 and 10^-6 M were determined as anti-5-HT action.

α1 = assay: Anti-α1 action: norepinephrine-induced tonic contraction of guinea pig thoracic aorta; parameters: species or system Hartley male guinea pig; conditions: contraction by 10^-5 M norepinephrine = 100%
Experimental: as §1
The thoracic aorta of each Hartley male guinea pig (body weight: 300-500 g) was excised. A sample cut in a helical form was suspended under 1 g load in a Magnus cylinder filled with the Tyrode solution of 37° C. which had been saturated with a mixed gas consisting of 95% O2 +5% CO2. Using an isometric transducer ("TB-612J"/NIHON KOHDEN) and a pressure preamplifier ("AP-620G"/NIHON KOHDEN), variations in tension were measured. The measurement results were recorded on a thermal pen-writing recorder ("WT-647G"/NIHON KOHDEN).
Taking the tonic contraction induced by 10^-5 M norepinephrine (NE) as 100% the percent contractions upon addition of each test drug at 10^-8 and 10^-7 M were determined as anti-α1 action.

SMILES	Anti 5-HT action (% of Control), percent contraction (serotonin (5-HT); test drug 10^-6 M, 1 µM)	Anti 5-HT action (% of Control), percent contraction (serotonin (5-HT); test drug 10^-7 M, 0.1 µM)	Anti α1 action (% of Control), percent contraction (α1; test drug 10^-7 M, 0.1 µM)	Anti α1 action (% of Control), percent contraction (α1; test drug 10^-8 M, 0.01 µM)
CN1CCC(O)c2ccn(CCCCN3CCN(c4ccccc4)CC3)c2C1=O (stereo not drawn) [Compound No. 24, 4-hydroxy-7-methyl-1-[4-(4-phenylpiperazin-1-yl)butyl]-4,5,6,7-tetrahydropyrrolo[2,3-c]azepin-8(1H)-one]	36.0 % of Control	78.3 % of Control	41.0 % of Control	90.3 % of Control
CN1CCC(=NO)c2ccn(CCCCN3CCN(c4cccc(Cl)c4)CC3)c2C1=O [Compound No. 31, 1-[4-[4-(3-Chlorophenyl)piperazin-1-yl]butyl]-4-hydroxyimino-7-methyl-4,5,6,7-tetrahydropyrrolo[2,3-c]azepin-8(1H)-one]	69.0 % of Control	86.2 % of Control	19.4 % of Control	93.9 % of Control
O=C1CCN(Cc2ccccc2)C(=O)c2c1ccn2CCCCCN1CCN(c2ccccc2)CC1 [Compound No. 20, 7-Benzyl-1-[5-(4-phenylpiperazin-1-yl)pentyl]6,7-dihydropyrrolo[2,3-c]azepine-4,8(1H,5H)-dione]	45.7 % of Control	54.5 % of Control	19.9 % of Control	49.2 % of Control
COc1ccccc1N1CCN(CCCCCn2ccc3c2C(=O)N(Cc2ccccc2)CCC3=O)CC1 [Compound No. 36, 7-Benzyl-1-[5-[4-(2-methoxyphenyl)piperazin-1-yl]pentyl]-6,7-dihydropyrrolo[2,3-c]azepine-4,8(1H,5H)-dione]	61.8 % of Control	84.0 % of Control	21.4 % of Control	43.6 % of Control
CN1CCC(=NO)c2ccn(CCCCN3CCN(c4ccc(F)cc4)CC3)c2C1=O [Compound No. 29, 4-Hydroxyimino-7-methyl-1-[4-[4-(4-fluorophenyl)piperazin-1-yl]butyl]-4,5,6,7-tetrahydropyrrolo[2,3-c]azepin-8(1H)-one]	12.0 % of Control	66.2 % of Control	39.5 % of Control	94.2 % of Control
CN1CCC(=NO)c2ccn(CCCCN3CCN(c4ccccc4)CC3)c2C1=O [Compound No. 27, 4-Hydroxyimino-7-methyl-1-[4-(4-phenylpiperazin-1-yl)butyl]-4,5,6,7-tetrahydropyrrolo[2,3-c]azepin-8(1H)-one]	25.7 % of Control	69.8 % of Control	18.4 % of Control	74.2 % of Control
